{"source": "paper PMC10249021", "about": "(Journal of the American Chemical Society, 2020)", "experiment": "Thermal stability of oxytocin and analogues at 50 °C by LCMS analysis", "type": "physicochemical", "details": "thermal degradation in water at 50 °C; read-out LCMS analysis", "data": [{"smiles": "CC[C@H](C)[C@@H]1NC(=O)[C@H](Cc2ccc(O)cc2)NC(=O)[C@@H](N)CSSC[C@@H](C(=O)N2CCC[C@H]2C(=O)N[C@@H](CC(C)C)C(=O)NCC(N)=O)NC(=O)[C@H](CC(N)=O)NC(=O)[C@H](CCC(N)=O)NC1=O", "note": "[oxytocin]", "values": [{"measurement": "half-life (thermal stability)", "result": 93.6, "unit": "h"}]}]}
